Key:
[1] = Pharmacokinetic evaluation in CD-1 mice; format: in vivo; conditions: oral administration 10.0 mg/kg
Procedure: Experimental Example 3: Pharmacokinetic Evaluation of the Compound of the Present Disclosure in […]
Experimental purpose: To test the pharmacokinetics of the compound in CD-1 mice in vivo
Experimental materials: CD-1 mice (male, 20 to 40 g, 4 to 6 weeks old, Beijing Vital River)
The pharmacokinetic characteristics of the compound in rodents after intravenous injection and oral administration were tested according to the standard protocol. In the experiment, the candidate compound was formulated into clear solutions, and a single intravenous injection and oral administration were respectively given to two mice. The vehicle of intravenous injection and oral administration was 1:1:8 DMSO/Solutol/water. The whole blood samples within 24 hours were collected in commercial EDTA2K anticoagulant tubes. The tubes were centrifuged at 6000 g for 3 minutes. The supernatant was separated to obtain plasma samples. 20 times the volume of acetonitrile solution containing internal standard was added to precipitate protein. The mixture was centrifuged. The supernatant was take out. An equal volume of water was added. Then the mixture was centrifuged to take the supernatant as the sample for sampling. Plasma concentration was quantitatively analyzed by LC-MS/MS analysis method, and pharmacokinetic parameters were calculated, such as apparent volume of distribution, clearance rate, half-life, area under the drug-time curve.

[2] = target: DPP1 of U937 cells (Homo sapiens (Human), UniProt P53634); experiment: Activity test of inhibiting DPP1 in U937 cells; format: cell-based; conditions: Gly-Phe-AFC probe, read-out: IC50, inhibitory activity on DPP1 of U937 cells
Procedure: Experimental Example 2: Activity Test of Inhibiting DPP1 in U937 Cells
Experimental Materials: • 1) Experimental reagents and consumables
The cell plate was placed in a carbon dioxide incubator for 1 day; • (3) after incubation for 1 hour, 100 μM Gly-Phe-AFC probe solution was added thereto, that is, 60 mM Gly-Phe-AFC probe stock solution was diluted with culture medium to 500 μM working solution; the working solution in 10 μL per well was transferred into the cell plate, and the cell plate was incubated in a carbon dioxide incubator for 1 hour;
3) the plate was read, and the data were analyzed: • (1) plate reading: after the cell incubation was completed, the cell plate was taken out, and the plate was read on Victor Nivo.
Using the equation (Sample−Min)/(Max−Min)×100% to convert the raw data into inhibition rate, the IC50 value might be obtained by curve fitting with four parameters (obtained by “log (inhibitor) vs. response—Variable slope” mode in GraphPad Prism).

[3] = Rat tissue (bone marrow) distribution; format: in vivo; conditions: SD rats
Procedure: Experimental Example 6: Evaluation of Rat Tissue (Bone Marrow) Distribution of the Compound of the Present Disclosure
Experimental purpose: To test the distribution of the compound in the bone marrow and plasma of SD rats
Experimental materials: SD rats (male, 200 to 300 g, 6 to 10 weeks old, Beijing Vital River)
The content of the compound in the bone marrow and plasma of rats after oral administration was tested according to the standard protocol. In the experiment, the candidate compound was formulated into a clear solution. The vehicle was 5:95 DMSO and 10% hydroxypropyl β-cyclodextrin aqueous solution. A dose of 5 mg/kg was given to rats as a single oral administration. The whole blood samples and bone marrow samples were collected at 0.25, 0.5, 1, 2, 4, 6, and 24 hours, respectively. The whole blood samples were collected in commercial EDTA2K anticoagulant tubes. The tubes were centrifuged at 6000 g for 3 minutes. The supernatant was separated to obtain plasma samples. The acetonitrile solution containing internal standard was added to precipitate protein. The mixture was centrifuged. The supernatant was take out. An equal volume of water was added. After mixing well, plasma concentration was quantitatively analyzed by LC-MS/MS analysis method, and the area under the drug-time curve was calculated. The left femur of the rat was taken, and the muscle was removed. One end was cut off, placed in a centrifuge tube with the open end downwards. The tubes were centrifuged at 8000 rpm for 1 minute. The precipitate was bone marrow. The bone marrow was mixed with 50% methanol-water, grinded into a homogenate. The homogenate was added with an acetonitrile solution containing an internal standard to precipitate protein. The mixture was centrifuged to take the supernatant, added with an equal volume of water. After mixing well, the drug concentration in bone marrow was quantitatively analyzed by LC-MS/MS analysis method, and the area under the drug-time curve was calculated.
The calculation formula of bone marrow/plasma distribution coefficient is: Bone marrow/Plasma Ratio=bone marrow AUC0-last/plasma AUC0-last.

[4] = plasma, intravenous injection 2.0 mg/kg
[5] = bone marrow, 5 mg/kg single oral administration

Chain of DPP1 of U937 cells (P53634 25-134): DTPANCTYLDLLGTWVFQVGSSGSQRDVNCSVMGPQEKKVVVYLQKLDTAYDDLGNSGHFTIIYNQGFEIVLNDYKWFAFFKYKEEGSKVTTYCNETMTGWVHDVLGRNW
Chain of DPP1 of U937 cells (P53634 231-394): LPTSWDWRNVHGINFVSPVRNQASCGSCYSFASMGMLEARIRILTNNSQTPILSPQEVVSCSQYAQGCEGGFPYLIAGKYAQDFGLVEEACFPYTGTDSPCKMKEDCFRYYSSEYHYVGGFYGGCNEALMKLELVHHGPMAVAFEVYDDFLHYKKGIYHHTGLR
Chain of DPP1 of U937 cells (P53634 395-463): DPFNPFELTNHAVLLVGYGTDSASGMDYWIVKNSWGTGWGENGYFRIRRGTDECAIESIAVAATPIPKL

In the case of Cn1ncc2ccc(-c3ccc(C[C@@H](C#N)NC(=O)[C@@H]4CNCCCO4)c(F)c3)cc21 [Compound 8], the “Bioavailability F” value ([1]; intravenous injection 2.0 mg/kg) is reported as 79.6%, the “Clearance rate CL” value [1, 4] is reported as 18.7 mL/min/kg and the “Volume of distribution at steady state Vdss” value [1, 4] is reported as 8.3 L/kg. For the same molecule, the Cmax ([1]; plasma, intravenous injection 2.0 mg/kg, read-out: Peak concentration Cmax) was 2310 nM, the “Area under drug-time curve AUC0-∞ PO” value ([1]; plasma) was 17.008 µM·h and the “Half life T1/2 (PO)” value ([1]; plasma) was 4.6 h. The IC50 [2] was 2.4 nM, the “Bone marrow/plasma distribution coefficient” value ([3]; 5 mg/kg oral, bone marrow AUC0-last/plasma AUC0-last) was 7.0 and the “Bone marrow Area under drug-time curve AUC0-last PO” value [3, 5] was 68856 nmol·h/kg. The “Bone marrow Peak concentration Cmax” value [3, 5] was 5014 nmol/kg, the “Plasma Area under drug-time curve AUC0-last PO” value ([3]; plasma, 5 mg/kg single oral administration) was 9.902 µM·h and the Cmax ([3]; plasma, 5 mg/kg single oral administration, read-out: Plasma Peak concentration Cmax) was 1020 nM.
